The values below come from ChEMBL document CHEMBL5647681, “Lack of the aryl hydrocarbon receptor leads to impaired activation of AKT/protein kinase B and enhanced sensitivity to apoptosis induced via the intrinsic pathway” (J Pharmacol Exp Ther, 2007).

Data set [1] has as its target Aryl hydrocarbon receptor (Mus musculus) (UniProt P30561). Briefly: Antagonist activity at AHR in wild type mouse Hepa1c1c7 cells assessed as reduction in inhibition of Akt/PKB phosphorylation at 10 uM incubated for 24 hrs before UV-irradiation and measured after 30 to 60 mins by Western blot analysis. As to conditions: hepa1c1c7, 10 µM. On the technique in general: A western blot detects proteins with antibodies after separation by electrophoresis.

The target is the same in data set [2]. Put plainly: Antagonist activity at AHR in wild type mouse Hepa1c1c7 cells assessed as potentiation of UV-irradiation-induced apoptosis by measuring increase in caspase-3 activity at 0.1 to 1 uM incubated for 24 hrs before UV-irradiation for 24 hrs by caspase 3 Assay. The settings on record: hepa1c1c7, 48 h.
The nature of data set [3]: Toxicity in AHR deficient mouse LA1 cells assessed as induction of apoptosis by measuring increase in caspase-3 activity at 0.1 to 1 uM incubated for 24 hrs in absence of UV-irradiation by caspase 3 Assay. The settings on record: la1, 24 h.
The target in data set [4] is Aryl hydrocarbon receptor (Mus musculus) (UniProt P30561). Put plainly: Antagonist activity at AHR in wild type mouse Hepa1c1c7 cells assessed as reduction in inhibition of EGFR phosphorylation at 10 uM incubated for 24 hrs before UV-irradiation and measured after 30 mins by Western blot analysis. As to conditions: hepa1c1c7, 24 h.
The subject of the next data set is LA1. Briefly: Potentiation of UV-irradiation-induced apoptosis in AHR deficient mouse LA1 cells assessed as increase in caspase-3 activity at 0.1 to 1 uM incubated for 24 hrs before UV-irradiation for 24 hrs by caspase 3 Assay. As to conditions: dose 0.1-1 µM, time 48.0 hrs.

Active and inactive are the calls of the source. The calls are words filed in the database; no cut-off is given here.

Sequence of Aryl hydrocarbon receptor (Mus musculus) (P30561 whole entry, looked up): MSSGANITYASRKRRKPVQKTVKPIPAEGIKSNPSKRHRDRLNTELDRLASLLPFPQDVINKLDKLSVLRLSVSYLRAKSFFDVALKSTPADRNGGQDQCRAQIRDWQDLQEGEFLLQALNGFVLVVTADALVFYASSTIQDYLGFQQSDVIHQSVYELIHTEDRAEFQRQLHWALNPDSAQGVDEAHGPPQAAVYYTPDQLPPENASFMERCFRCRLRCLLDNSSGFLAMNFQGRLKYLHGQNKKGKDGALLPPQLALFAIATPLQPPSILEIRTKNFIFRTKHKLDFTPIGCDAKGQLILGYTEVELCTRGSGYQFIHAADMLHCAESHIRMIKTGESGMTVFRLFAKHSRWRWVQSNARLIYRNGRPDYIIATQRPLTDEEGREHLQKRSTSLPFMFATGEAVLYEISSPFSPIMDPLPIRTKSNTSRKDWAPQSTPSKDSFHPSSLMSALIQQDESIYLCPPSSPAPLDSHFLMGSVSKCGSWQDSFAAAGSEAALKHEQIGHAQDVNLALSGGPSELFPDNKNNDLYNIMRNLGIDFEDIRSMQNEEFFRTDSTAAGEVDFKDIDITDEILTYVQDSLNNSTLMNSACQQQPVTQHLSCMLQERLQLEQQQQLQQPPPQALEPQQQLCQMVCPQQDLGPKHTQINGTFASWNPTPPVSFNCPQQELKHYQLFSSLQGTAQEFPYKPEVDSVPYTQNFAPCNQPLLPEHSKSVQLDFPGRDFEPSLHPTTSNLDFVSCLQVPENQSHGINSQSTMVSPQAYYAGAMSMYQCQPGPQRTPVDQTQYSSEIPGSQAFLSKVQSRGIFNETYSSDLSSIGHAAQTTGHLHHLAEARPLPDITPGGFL

Regarding `COc1cc(-c2cc(=O)c3ccccc3o2)ccc1[N+](=O)[O-]`, the Activity result in data set [1] is reported as “Active”; in data set [2], “Active”; in data set [3], “Non-Toxic”; in data set [4], “Active”. Moreover, in the data set with LA1, the outcome was Active.
